Test results taken from patent US20240158447A1, “PEPTIDES FOR USE IN THE TREATMENT OR PREVENTION OF MYOCARDIAL DAMAGE” (THE UNIVERSITY OF WESTERN AUSTRALIA, priority 2020, published 2024).

Legend:
[1] = tested on: cTnI.2 wt myocytes; assay: Flavoprotein oxidation response to BayK(−), wt myocytes (Example 10); type: cell-based, mouse; settings: 10 μM BayK(−)
Protocol: In this experiment wt myocytes were pre-exposed to 0.1, 0.5 or 1 μM for 20 min and assessed changes in flavoprotein oxidation and ψm.
Measurement of mitochondrial flavoprotein oxidation: Flavoprotein autofluorescence was used to measure flavoprotein oxidation based on previously described methods (Yaniv Y, Juhaszova M, Lyashkov A E, Spurgeon H A, Sollott S J, Lakatta E G. Ca2+-regulated-cAMP/PKA signaling in cardiac pacemaker cells links ATP supply to demand. J Mol Cell Cardiol. 2011; 51(5):740-8). […] Fluorescent images were acquired at 1 min intervals with 200 ms exposure. Metamorph 6.3 (Version 7.10.3) was used to quantify the signal by manually tracing myocytes. An equivalent region not containing cells was used as background and was subtracted. Fluorescence values recorded over 5 min before and 5 min after addition of drugs were averaged and alterations in fluorescent ratios reported as the percentage increase from the basal average. FCCP (50 μM) and NaCN (40 mM) was added at the end of each experiment to achieve a respective maximal and minimal fluorescence value indicative of maximal and minimal flavoprotein oxidation.
The ICA-L agonist BayK(−) was used to activate the channel and assess mitochondrial function. […] FIG. 10 presents the mean+/−SEM of flavoprotein fluorescence from cTnI.2 wt and cTnI-G2035 mutant myocytes before and after exposure to 10 μM BayK(−) in the presence of 1 μM AID(S)-TAT, and increasing concentrations of variant peptides as indicated. N=no. of animals, n=no. of cardiomyocytes. P values shown compared with AID(S)-TAT as determined by the Kruskal-Wallis test.

[2] = tested on: cTnI-G203S mice; assay: Heart weight to body weight ratio of treated cTnI-G203S mice; type: in vivo, mouse; settings: 5 μM, 3×/wk/5 wk; compared with cTnI-G203S AID(S)-TAT; FIG. 16
Protocol: The effect of treatment of the mice with peptides on the development of hypertrophy assessed as changes in heart weight to body weight ratio was also examined. […] FIG. 16 presents the mean±SEM of heart weight to body weight ratio measurements from wt and cTnI-G203S mice treated with 10 μM AID(S)-TAT, 10 μM AID-TAT, 5 μM AIDP7-TAT, 5 μM AIDP14-TAT, 5 μM AIDP15-TAT or 5 μM AIDP16-TAT. n=number of mice as indicated. *P<0.05, **P<0.01 compared with cTnI-G203S AID(S)-TAT as determined by Kruskal-Wallis tests.

[3] = tested on: cTnI-G203S mice; assay: Myocardial fibrosis, Masson's Trichrome collagen volume fraction; type: in vivo, mouse; settings: 5 μM, 3×/wk/5 wk from 20 weeks of age; versus cTnI-G203S AID(S)-TAT; FIG. 14
Description: Following completion of treatment regimes, mouse hearts were extracted and prepared for Masson's Trichchrome staining based on previously described methods with minor modifications (Van De Vlekkert D, Machado E, d'Azzo A. Analysis of Generalized Fibrosis in Mouse Tissue Sections with Masson's Trichrome Staining. Bio Protoc. 2020; 10(10):e3629). Hearts were washed in PBS and fixed overnight in 10% buffered formalin saline (FSAL-5L; Hurst Scientific, AUS). After fixation, hearts were washed 3×10 min in PBS and incubated overnight in 30% sucrose solution (in PBS). […]
To observe the levels of cardiac fibrosis in mice, a minimum of 15 sections of microscopic fields for each animal were selected randomly for histological analysis. Images of heart sections were obtained using a Nikon upright light microscope (DS-Qi2, Japan) at 20× magnification and analysed using ImageJ (NIH). […]
Here we assessed the efficacy of treating 20-week-old pre-hypertrophic cTnI-G203S mice with 5 μM AID-TAT variant peptides (3×/wk/5 wk) on the development and progression of fibrosis. […] Images were acquired using a Nikon Upright Microscope and collagen volume fraction (%) was determined using ImageJ colour thresholding. […] Values reported as mean±SEM; P values compared with cTnI-G203S AID(S)-TAT as determined by the Kruskal-Wallis test.

AIDP7-TAT: QQQEEDLKGYLDWITQAE with TAT sequence
BayK(−) induced increase in flavoprotein oxidation ([1]; 0.5 μM peptide 20 min, FIG. 10B): effective | BayK(−) induced increase in flavoprotein oxidation ([1]; 1 μM peptide 20 min, FIG. 10A): just as effective at attenuating the response in wt myocytes as the original AID-TAT | heart weight to body weight ratio [2]: significantly decreased heart weight/body weight | left ventricular posterior wall collagen volume fraction (CVF, %) [3]: significantly decreased
